From patent US11584775B2, “C4-modified oleanolic acid derivatives for inhibition of IL-17 and other uses” (REATA PHARMACEUTICALS, INC., priority 2015, dated 2023)

Assays:
[1] = system: IFNγ-induced Nitric Oxide production; test: Nitric oxide production assay in RAW 264.7 mouse macrophages; type: cell-based; details: RAW264.7, suppression of IFNγ-induced NO production normalized to cell viability (WST-1), RAW 264.7, 24 hours IFNγ
In short: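 Cells pre-treated 2 h with compound (0.4-200 nM or 2-1000 nM) in RPMI 1640 + 0.5% FBS, then stimulated with recombinant mouse IFNγ for 24 h at 37 °C. Nitrite measured by Griess reagent, viability by WST-1; IC50 from NO suppression normalized to viability and to DMSO/IFNγ controls.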

NRF2 = test: AREc32 luciferase reporter assay; type: cell-based, human; details: EC2×: concentration required to increase GST ARE Luciferase reporter activity by 2-fold; AREc32 cells, 19 hours
In short: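 AREc32 cells (MCF-7 stably carrying eight rat GSTA2 ARE copies driving firefly luciferase) treated 19 h with compound (0.4–200 nM or 2–1000 nM), triplicate. Luminescence normalized to DMSO as fold-induction; variable-slope fit capped at 50-fold; EC2× = concentration giving 2-fold induction.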

human RORγ = target: T1, human RORγ (Homo sapiens, UniProt P51449); test: RORγ assay (GAL4-RORγ hybrid luciferase reporter, inverse-agonist activity); type: cell-based; details: GAL4-RORγ hybrid reporter cells, 23 hours
T1 sequence (P51449 269-508 limits assumed): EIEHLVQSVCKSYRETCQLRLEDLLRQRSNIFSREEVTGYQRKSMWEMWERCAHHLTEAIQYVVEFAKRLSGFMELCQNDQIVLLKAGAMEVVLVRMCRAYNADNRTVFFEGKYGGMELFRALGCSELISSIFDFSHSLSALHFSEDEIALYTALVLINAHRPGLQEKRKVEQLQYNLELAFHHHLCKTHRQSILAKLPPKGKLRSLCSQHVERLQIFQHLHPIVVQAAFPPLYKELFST
In short: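 Human cell line expressing GAL4-DBD/RORγ hybrid with UAS-driven luciferase, treated in triplicate with compound (0.4–200 nM or 2–1000 nM) for 23 h at 37 °C. Luminescence normalized to DMSO; viability measured in parallel by multiplex assay. IC50 for RORγ and viability by variable-slope nonlinear regression.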

hIL17 = test: IL-17 release from differentiated primary human T-cells (IL-17A HTRF assay); type: cell-based; details: inhibition of IL-17A levels; primary human CD4+ T cells differentiated into Th17 cells, 46-hour incubation
In short: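 Cryopreserved primary human CD4+ T cells were activated with anti-CD3/CD28 beads and driven to Th17 with TGF-β, IL-6, IL-23 and IL-1β in the presence of compound (2-500 nM or 4-1000 nM) for 46 h at 37° C. Supernatant IL-17A was quantified by HTRF against a standard curve and normalized to DMSO. IC50s came from variable-slope fits, with viability read by CyQuant.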

SMILES | IC50 (human RORγ) | IC50 (hIL17) | IC50 [1] | EC2x: concentration giving 2-fold induction of ARE luciferase reporter (NRF2)
C[C@H](O)[C@]1(C)C(=O)C(C#N)=C[C@]2(C)C3=CC(=O)[C@]45OC(=O)[C@@]6(CCC(C)(C)C[C@H]64)CC[C@@]5(C)[C@]3(C)CC[C@@H]12 [Compound T48, (4R,4aR,6aR,6bS,8aS,12aR,12bS,14bS)-4-((S)-1-hydroxyethyl)-4,6a,6b, 11,11,14b-hexamethyl-3,13,16-trioxo-4,4a,5,6,6a,6b,7,8,10,11,12,12a,13,14b-tetradecahydro-3H,9H-12b,8a-(epoxymethano)picene-2-carbonitrile] | 162 nM | 13 nM | 1.2 nM | 3 nM
CC(=O)OC[C@]1(C)C(=O)C(C#N)=C[C@]2(C)C3=CC(=O)[C@@H]4[C@@H]5CC(C)(C)CC[C@]5(C(=O)NCC(F)(F)F)CC[C@@]4(C)[C@]3(C)CC[C@H]21 [Compound T23, ((4R,4aR,6aS,6bR,8aS,12aS,12bR,14bS)-2-cyano-4,6a,6b, 11,11,14b-hexamethyl-3,13-dioxo-8a-((2,2,2-trifluoroethyl)carbamoyl)-3,4,4a,5,6,6a,6b,7,8,8a,9,10,11,12,12a,12b,13,14b-octadecahydropicen-4-yl)methyl acetate] | 145 nM | 68 nM | 150 nM | 484 nM
CC(=O)OC[C@]1(C)C(=O)C(C#N)=C[C@]2(C)C3=CC(=O)[C@@H]4[C@@H]5CC(C)(C)CC[C@]5(c5nc(C)no5)CC[C@@]4(C)[C@]3(C)CC[C@H]21 [Compound T46, ((4R,4aR,6aS,6bR,8aS,12aS,12bR,14bS)-2-cyano-4,6a,6b, 11,11,14b-hexamethyl-8a-(3-methyl-1,2,4-oxadiazol-5-yl)-3,13-dioxo-3,4,4a,5,6,6a,6b,7,8,8a,9,10,11,12,12a,12b,13,14b-octadecahydropicen-4-yl)methyl acetate] | 115 nM | 13 nM | 101 nM | 366 nM
CCNC(=O)[C@]12CCC(C)(C)C[C@H]1[C@H]1C(=O)C=C3[C@@]4(C)C=C(C#N)C(=O)[C@@](C)(O)[C@@H]4CC[C@@]3(C)[C@]1(C)CC2 [Compound T26, (4aS,6aR,6bS,8aR,9S,12aS,14aR,14bS)-11-cyano-N-ethyl-9-hydroxy-2,2,6a,6b,9,12a-hexamethyl-10,14-dioxo-1,3,4,5,6,6a,6b,7,8,8a,9,10,12a,14,14a,14b-hexadecahydropicene-4a(2H)-carboxamide] | 292 nM | 132 nM | 370 nM | 463 nM
COCOC[C@]1(C)C(=O)C(C#N)=C[C@]2(C)C3=CC(=O)[C@@H]4[C@@H]5CC(C)(C)CC[C@]5(C(=O)OC)CC[C@@]4(C)[C@]3(C)CC[C@H]21 [Compound T7, methyl (4aS,6aR,6bS,8aR,9R,12aS,14aR,14bS)-11-cyano-9-((methoxymethoxy)methyl)-2,2,6a,6b,9,12a-hexamethyl-10,14-dioxo-1,3,4,5,6,6a,6b,7,8,8a,9,10,12a,14,14a,14b-hexadecahydropicene-4a(2H)-carboxylate] | 251 nM | 27 nM | 95.1 nM | 270 nM
COC(=O)[C@]12CCC(C)(C)C[C@H]1[C@H]1C(=O)C=C3[C@@]4(C)C=C(C#N)C(=O)[C@@](C)(CCO[Si](C)(C)C(C)(C)C)[C@@H]4CC[C@@]3(C)[C@]1(C)CC2 [Compound T18, methyl (4aS,6aR,6bS,8aR,9S,12aS,14aR,14bS)-9-(2-((tert-butyldimethylsilyl)oxy)ethyl)-11-cyano-2,2,6a,6b,9,12a-hexamethyl-10,14-dioxo-1,3,4,5,6,6a,6b,7,8,8a,9,10,12a,14,14a, 14b-hexadecahydropicene-4a(2H)-carboxylate] | 583 nM | 24 nM | 78.5 nM | 585 nM
COC(=O)[C@]12CCC(C)(C)C[C@H]1[C@H]1C(=O)C=C3[C@@]4(C)C=C(C#N)C(=O)[C@@](C)(COC(C)=O)[C@@H]4CC[C@@]3(C)[C@]1(C)CC2 [Compound T8, methyl (4aS,6aR,6bS,8aR,9R,12aS,14aR,14bS)-9-(acetoxymethyl)-11-cyano-2,2,6a,6b,9,12a-hexamethyl-10,14-dioxo-1,3,4,5,6,6a,6b,7,8,8a,9,10,12a,14,14a,14b-hexadecahydropicene-4a(2H)-carboxylate] | 109 nM | 24 nM | 74.6 nM | 276 nM
COC(=O)[C@]12CCC(C)(C)C[C@H]1[C@H]1C(=O)C=C3[C@@]4(C)C=C(C#N)C(=O)[C@](C)(CO)[C@@H]4CC[C@@]3(C)[C@]1(C)CC2 [Comparison Compound #301, reference compound] | 144 nM | 17 nM | 1.8 nM | 8 nM
COC(=O)[C@]12CCC(C)(C)C[C@H]1[C@@]1(O)C(=O)C=C3[C@@]4(C)C=C(C#N)C(=O)C(C)(C)[C@@H]4CC[C@@]3(C)[C@]1(C)CC2 [Comparison Compound #5, reference compound] | 135 nM | 15 nM | 1.6 nM | 2 nM

The next lines start with results.

IC50 (human RORγ) | IC50 (hIL17) | SMILES | IC50 [1] | EC2x: concentration giving 2-fold induction of ARE luciferase reporter (NRF2)
1350 nM | 336 nM | CC1(C)CC[C@@]23CC[C@@]4(C)[C@]5(C)CC[C@H]6[C@](C)(C(N)=O)C(=O)C(C#N)=C[C@]6(C)C5=CC(=O)[C@]4(OC2=O)[C@@H]3C1 [Compound T37, (4S,4aR,6aR,6bS,8aS,12aR,12bS,14bS)-2-cyano-4,6a,6b, 11,11,14b-hexamethyl-3,13,16-trioxo-4,4a,5,6,6a,6b,7,8,10,11,12,12a,13,14b-tetradecahydro-3H,9H-12b,8a-(epoxymethano)picene-4-carboxamide] | > 1000 nM | >1000 nM
268 nM | 46 nM | COC(=O)[C@]1(C)C(=O)C(C#N)=C[C@]2(C)C3=CC(=O)[C@]45OC(=O)[C@@]6(CCC(C)(C)C[C@H]64)CC[C@@]5(C)[C@]3(C)CC[C@@H]12 [Compound T34, methyl (4S,4aR,6aR,6bS,8aS,12aR,12bS,14bS)-2-cyano-4,6a,6b, 11,11,14b-hexamethyl-3,13,16-trioxo-4,4a,5,6,6a,6b,7,8,10,11,12,12a,13,14b-tetradecahydro-3H,9H-12b,8a-(epoxymethano)picene-4-carboxylate] | 383 nM | 377 nM
127 nM | 25 nM | COC(=O)[C@]12CCC(C)(C)C[C@H]1[C@H]1C(=O)C=C3[C@@]4(C)C=C(C#N)C(=O)[C@@H](C)[C@@H]4CC[C@@]3(C)[C@]1(C)CC2 [Comparison Compound #1, reference compound] | 1.2 nM | 11 nM
361 nM | 37 nM | COC(=O)[C@]12CCC(C)(C)C[C@H]1[C@H]1C(=O)C=C3[C@@]4(C)C=C(C#N)C(=O)[C@@](C)(COC(=O)c5ccccc5)[C@@H]4CC[C@@]3(C)[C@]1(C)CC2 [Compound T9, methyl (4aS,6aR,6bS,8aR,9R,12aS,14aR,14bS)-9-((benzoyloxy)methyl)-11-cyano-2,2,6a,6b,9,12a-hexamethyl-10,14-dioxo-1,3,4,5,6,6a,6b,7,8,8a,9,10,12a,14,14a,14b-hexadecahydropicene-4a(2H)-carboxylate] | 191 nM | 962 nM
91 nM | 24 nM | COCOC[C@@]1(C)C(=O)C(C#N)=C[C@]2(C)C3=CC(=O)[C@@H]4[C@@H]5CC(C)(C)CC[C@]5(C(=O)OC)CC[C@@]4(C)[C@]3(C)CC[C@@H]12 [Comparison Compound #302, reference compound] | 13.1 nM | 78 nM
177 nM | 16 nM | COC(=O)[C@]12CCC(C)(C)C[C@H]1[C@@]1(O)C(=O)C=C3[C@@]4(C)C=C(C#N)C(=O)[C@@](C)(O)[C@@H]4CC[C@@]3(C)[C@]1(C)CC2 [Compound T38, methyl (4aS,6aS,6bR,8aR,9S,12aS,14aS,14bR)-11-cyano-9,14a-dihydroxy-2,2,6a,6b,9,12a-hexamethyl-10,14-dioxo-1,3,4,5,6,6a,6b,7,8,8a,9,10,12a,14,14a,14b-hexadecahydropicene-4a(2H)-carboxylate] | 57.2 nM | 80 nM
